Measurements: patent publication US20260053811A1, “METHODS OF TREATING HYPERTENSION IN OBESE SUBJECTS” (Mineralys Therapeutics, Inc., priority 2022, published 2026)

System: hypertensive subjects
Assay: Seated automated office blood pressure (AOBP) in randomized, placebo-controlled, dose-ranging study
Type: in vivo, human
Details: Part 1, 12.5 mg QD
Experimental: A randomized, double-blinded, placebo-controlled, dose-ranging, multicenter study was conducted to evaluate the effect of orally administered Compound A HBr on blood pressure for the treatment of hypertension in male and female subjects ≥18 years of age.
The study consists of two parts. For enrollment into Part 1 of the study, a subject's value of plasma renin activity (PRA) must be ≤1 ng/mL/h based on morning measurement. If the value of PRA >1 ng/mL/h based on morning measurement, then subjects may be eligible to enter Part 2 of the study.
For Part 1, 163 enrolled subjects ≥18 years of age were randomized into 6 equal treatment groups (1:1:1:1:1:1) to 12.5 mg BID, 25 mg BID, 12.5 mg QD, 50 mg QD, 100 mg QD, or placebo. After a review of interim clinical data, the 2 lowest dose levels (12.5 mg QD and 12.5 mg BID) were stopped for future randomization due to a lack of consistent meaningful reduction of blood pressure, but the patients randomized to that point remained in the study through completion. Thus, after the review of interim clinical data, subjects were randomized into 4 equal treatment groups (1:1:1:1) to 25 mg BID, 50 mg QD, 100 mg QD, or placebo.
For Part 2, 36 enrolled subjects ≥18 years of age were randomized (5:1) to either 100 mg QD Compound A HBr or placebo such that the Compound A HBr treatment group consisted of approximately 30 subjects and the placebo treatment group will consist of approximately 6 subjects.
Subjects orally administered the assigned study drug (Compound A HBr or placebo) according to the assigned dosing regimen for 8 weeks beginning on Study Day 1. All subjects in Part 1 (regardless of dosing group) received BID dosing to preserve the integrity of the blind; active drug is administered as the morning dose for all QD dose groups. Subjects returned to the research facility or were seen by the clinical investigator or approved home health care professional at the end of Study Weeks 1, 2, 3, 4, 5, 6, 7, and 8 (±2 days) for protocol-defined efficacy and safety assessments and procedures, assessment of adverse events (AEs), and confirmation of compliance with study drug usage. Subjects also completed a telephone visit and blood pressure (BP) check at home approximately 3 days post last dose of study drug. Subjects attended up to 14 full clinic visits, including a pre-Screening visit, a Screening/start of Placebo Run-in visit, a second visit during Placebo Run-in, a clinic visit to initiate the ABPM procedure, a Randomization visit, 8 weekly visits during double-blind treatment, and an end-of-study visit scheduled 4 weeks after the last study treatment for final efficacy and safety assessments.
An automated oscillometric sphygmomanometer device was used to measure the subjects' systolic and diastolic blood pressure in office after approximately 5 minutes of rest in the seated position.
The primary endpoint is the change in office-measured (mean of last 2 of 5 unattended measurements using an automated oscillometric sphygmomanometer device after approximately 5 minutes of rest in the seated position) systolic blood pressure (SBP) from baseline to the end of Study Week 8.
Secondary endpoints of this study were: • (a) Change in 24-hour ambulatory blood pressure monitoring (ABPM) parameters (systolic and diastolic) from baseline to the end of Study Week 7. • (b) Change in office-measured SBP from baseline to the end of Study Weeks 1, 2, 3, 4, 5, 6, and 7. • (c) Change in office-measured diastolic blood pressure (DBP) from baseline to the end of Study Weeks 1, 2, 3, 4, 5, 6, 7, and 8. • (d) Proportion of subjects who achieve office-measured BP of ≤130/80 mm Hg by the end of Study Week 8.

In the case of `CC(=O)N[C@H]1CC[C@H](NC(=O)CN2CCN(c3nncc(-c4ccc(C)cc4)n3)CC2)CC1` [Compound A HBr], the “Mean (SD) Automated Office-Measured Systolic Blood Pressure at Wk 8” value (Age 65-79 yr) is reported as 135.63 (15.23) mmHg, the “Mean (SD) Change from Baseline at Week 8 in Automated Office-Measured Diastolic Blood Pressure” value (Age 65-79 yr) is reported as −5.06 (7.49) mmHg and the “Mean (SD) Change from Baseline at Week 8 in Automated Office-Measured Systolic Blood Pressure” value (Age 65-79 yr) is reported as −8.50 (14.04) mmHg. For the same compound, the “Mean (SD) Automated Office-Measured Diastolic Blood Pressure at Wk 8” value (Age <65 yr) was 82.63 (20.67) mmHg, the “Mean (SD) Automated Office-Measured Systolic Blood Pressure at Wk 8” value (Age <65 yr) was 144.88 (25.16) mmHg and the “Mean (SD) Change from Baseline at Week 8 in Automated Office-Measured Diastolic Blood Pressure” value (Age <65 yr) was −2.19 (9.98) mmHg. The “Mean (SD) Change from Baseline at Week 8 in Automated Office-Measured Systolic Blood Pressure” value (Age <65 yr) was −5.75 (22.93) mmHg, the “Mean (SD) Automated Office-Measured Diastolic Blood Pressure at Wk 8” value (Age ≥80 yr) was 93.50 (37.48) mmHg and the “Mean (SD) Automated Office-Measured Systolic Blood Pressure at Wk 8” value (Age ≥80 yr) was 145.00 (42.43) mmHg. The “Mean (SD) Change from Baseline at Week 8 in Automated Office-Measured Diastolic Blood Pressure” value (Age ≥80 yr) was 13.00 (37.48) mmHg, the “Mean (SD) Change from Baseline at Week 8 in Automated Office-Measured Systolic Blood Pressure” value (Age ≥80 yr) was −4.75 (39.95) mmHg and the “Mean (SD) Automated Office-Measured Diastolic Blood Pressure at Wk 8” value (BMI 25−30 kg/m^2) was 76.00 (6.22) mmHg. For the same compound, the “Mean (SD) Change from Baseline at Week 8 in Automated Office-Measured Diastolic Blood Pressure” value (BMI 25−30 kg/m^2) was −4.64 (7.81) mmHg, the “Mean (SD) Automated Office-Measured Diastolic Blood Pressure at Wk 8” value (BMI <25 kg/m^2) was 73.00 (NE) mmHg and the “Mean (SD) Change from Baseline at Week 8 in Automated Office-Measured Diastolic Blood Pressure” value (BMI <25 kg/m^2) was −1.50 (NE) mmHg. For the same compound, the “Mean (SD) Automated Office-Measured Diastolic Blood Pressure at Wk 8” value (BMI >30 kg/m^2) was 86.10 (21.92) mmHg, the “Mean (SD) Change from Baseline at Week 8 in Automated Office-Measured Diastolic Blood Pressure” value (BMI >30 kg/m^2) was 0.20 (16.85) mmHg and the “Mean (SD) Automated Office-Measured Systolic Blood Pressure at Wk 8” value (BMI at baseline 25-30 kg/m^2) was 134.14 (18.96) mmHg. The “Mean (SD) Change from Baseline at Week 8 in Automated Office-Measured Systolic Blood Pressure” value (BMI at baseline 25-30 kg/m^2) was −7.71 (19.07) mmHg, the “Mean (SD) Automated Office-Measured Systolic Blood Pressure at Wk 8” value (BMI at baseline <25 kg/m^2) was 137.00 (NE) mmHg and the “Mean (SD) Change from Baseline at Week 8 in Automated Office-Measured Systolic Blood Pressure” value (BMI at baseline <25 kg/m^2) was −11.50 (NE) mmHg. The “Mean (SD) Automated Office-Measured Systolic Blood Pressure at Wk 8” value (BMI at baseline >30 kg/m^2) was 145.80 (24.73) mmHg, the “Mean (SD) Change from Baseline at Week 8 in Automated Office-Measured Systolic Blood Pressure” value (BMI at baseline >30 kg/m^2) was −5.80 (22.31) mmHg and the “Mean (SD) Automated Office-Measured Diastolic Blood Pressure at Wk 8” value (Race Black or AA) was 85.00 (19.41) mmHg. For the same compound, the “Mean (SD) Automated Office-Measured Systolic Blood Pressure at Wk 8” value (Race Black or AA) was 147.50 (22.06) mmHg, the “Mean (SD) Change from Baseline at Week 8 in Automated Office-Measured Diastolic Blood Pressure” value (Race Black or AA) was −0.69 (7.56) mmHg and the “Mean (SD) Change from Baseline at Week 8 in Automated Office-Measured Systolic Blood Pressure” value (Race Black or AA) was −1.44 (16.04) mmHg. The “Mean (SD) Automated Office-Measured Diastolic Blood Pressure at Wk 8” value (Race Other) was 78.60 (15.76) mmHg, the “Mean (SD) Automated Office-Measured Systolic Blood Pressure at Wk 8” value (Race Other) was 135.40 (21.55) mmHg and the “Mean (SD) Change from Baseline at Week 8 in Automated Office-Measured Diastolic Blood Pressure” value (Race Other) was −2.65 (17.00) mmHg. The “Mean (SD) Change from Baseline at Week 8 in Automated Office-Measured Systolic Blood Pressure” value (Race Other) was −11.20 (22.29) mmHg, the “Mean (SD) Automated Office-Measured Diastolic Blood Pressure at Wk 8” value (Seated SBP Tertile High) was 84.22 (23.90) mmHg and the “Mean (SD) Change from Baseline at Week 8 in Automated Office-Measured Diastolic Blood Pressure” value (Seated SBP Tertile High) was −1.06 (18.28) mmHg. For the same compound, the “Mean (SD) Automated Office-Measured Diastolic Blood Pressure at Wk 8” value (Seated SBP Tertile Low) was 78.50 (7.48) mmHg, the “Mean (SD) Change from Baseline at Week 8 in Automated Office-Measured Diastolic Blood Pressure” value (Seated SBP Tertile Low) was −4.17 (6.69) mmHg and the “Mean (SD) Automated Office-Measured Diastolic Blood Pressure at Wk 8” value (Seated SBP Tertile Middle) was 79.00 (5.57) mmHg. For the same compound, the “Mean (SD) Change from Baseline at Week 8 in Automated Office-Measured Diastolic Blood Pressure” value (Seated SBP Tertile Middle) was 0.83 (5.62) mmHg, the “Mean (SD) Automated Office-Measured Diastolic Blood Pressure at Wk 8” value (Sex Female) was 75.11 (8.40) mmHg and the “Mean (SD) Automated Office-Measured Systolic Blood Pressure at Wk 8” value (Sex Female) was 136.00 (17.23) mmHg. For the same compound, the “Mean (SD) Change from Baseline at Week 8 in Automated Office-Measured Diastolic Blood Pressure” value (Sex Female) was −4.83 (8.08) mmHg, the “Mean (SD) Change from Baseline at Week 8 in Automated Office-Measured Systolic Blood Pressure” value (Sex Female) was −9.22 (10.54) mmHg and the “Mean (SD) Automated Office-Measured Diastolic Blood Pressure at Wk 8” value (Sex Male) was 87.78 (21.70) mmHg. The “Mean (SD) Automated Office-Measured Systolic Blood Pressure at Wk 8” value (Sex Male) was 145.56 (26.10) mmHg, the “Mean (SD) Change from Baseline at Week 8 in Automated Office-Measured Diastolic Blood Pressure” value (Sex Male) was 1.28 (17.06) mmHg and the “Mean (SD) Automated Office-Measured Systolic Blood Pressure at Wk 8” value (Systolic Blood Pressure Tertile at Baseline High) was 146.33 (26.41) mmHg.
